The values that follow come from PMC2607543, “Peptides Derived from HIV-1 Integrase that Bind Rev Stimulate Viral Genome Integration” (PLoS ONE, 2009).

Series [1] relates to HIV-1 in Sup-T1 cells. Kind of series: Time-of-addition assay, viral p24 in Sup-T1 cells. Format: cell-based. As to conditions: MOI 2; dextran sulfate 20 µM, AZT 2 µM, LEDGF 402–411 12.5 µM; p24 at 48 h PI; Fig 8C. The protocol: Figure 8 Virus-cell adsorption and viral reverse-transcriptase activity are not affected by the INr peptides. (A and B) Estimation of viral DNA in virus-infected cells: Sup-T1 cells were incubated with the indicated peptides or with AZT for 2 h and then were infected with HIV. Following another 6 h incubation, the viral Gag (A) or Nef (B) DNA sequences were amplified using specific primers. The reaction was terminated after 30 cycles. Lanes: 1) INr-1 (12.5 µM); 2) INr-2 (12.5 µM); 3) AZT (2 µM); 4) untreated cells; 5) uninfected cells. […] (C) Influence of the time of addition on P24 production: Sup-T1 cells were infected with HIV-1 at a MOI of 2, and the indicated constituents were added at different time points PI (0, 2, 4,…, 24 h). Viral p24 was determined at 48 h PI. No addition (Blue X); no virus (Gray diamond); dextran sulfate 20 µM (Brown asterisk); AZT 2 µM (Red empty circle); INr-1 12.5 µM (Green diamond); INr-2 12.5 µM (Magenta square); LEDGF 402–411 (Black full circle).
Sup T1 cells were infected with wild-type HIV-1 at a MOI of 2, and the test compounds were added at different time points after infection (0, 2, 4,…, 24 h). Viral p24 production was determined at 48 h PI [59]. Dextran sulfate was tested at 20 µM, AZT at 2 µM, LEDGF 402-411, INr-1 and INr-2 at 12.5 µM.

Series [2] relates to viral Gag or Nef DNA sequences. The format is cell-based, HIV-1. As to conditions: INr 12.5 µM or AZT 2 µM, 2 h before infection, 6 h after; Gag (A) or Nef (B) PCR; Fig 8A and B.
Series [3] concerns HIV-1 infected cells. Kind of series: Cell death and syncytia formation in infected, INr-treated cells. As to conditions: combination of the peptide and the virus; not shown. The format is cell-based.
The subject of series [4] is H9 lymphocytes. Kind of series: MTT cell toxicity assay, H9. The format is cell-based. As to conditions: up to about 62 µM, Fig 4C. The protocol:
(§1) Figure 4 Cell penetration and toxicity of INr peptides. (A) Fluorescein-labeled INr-1, INr-2, and IN-3 (a known nonpermeable peptide) each at 10 µM, were incubated for 2 h at 37°C with HeLa cells. The cells were then washed three times with PBS and visualized by confocal microscopy. (B) Cell toxicity was determined by MTT assay in HeLa TZM-bl cells. (C) Same as (B) but in H9 lymphocytes. Experimental conditions are described in Materials and Methods.
(§2) Following incubation of the cells with the indicated peptides, the medium was removed and the cells were further incubated in Earl's solution containing 0.3 mg/ml MTT for 1 h. Subsequently, the solution was removed and the cells were dissolved in 100 µl DMSO for 10 min at room temperature. The DMSO-solubilized cells were transferred to a 96-well ELISA plate and OD values were monitored at a wavelength of 570 nm.

Series [5] concerns HeLa TZM-bl cells. As to the kind of experiment: MTT cell toxicity assay, HeLa TZM-bl. Format: cell-based. As to conditions: up to about 62 µM, Fig 4B. Here is the method: as §1, §2
(Tetrazolium assays rely on reduction of a dye to a coloured formazan, in cell work by metabolically active cells.)

In series [6] the test system is HIV-1 IN. As to conditions: ref [36]; cited from earlier work. Here is the method: Dextran sulfate, various peptides and AZT were added at different times to HIV-1 infected Sup-T1 cells and the amount of viral P24 protein—reflecting efficiency of virus infection—was estimated at 48 h PI.

Where no end group is shown, it is not given here. Where only a bound is given, the exact number is not on record here.

On to dextran sulfate, for which the “Time of addition post infection up to which infection is inhibited” value (shortened to “Time … to which infection is inhibited”) in series [1] is at most 4 h.

For `Cc1cn([C@H]2C[C@H](N=[N+]=[N-])[C@@H](CO)O2)c(=O)[nH]c1=O` [AZT, azidothymidine], the “Effect on reverse transcription / reverse-transcribed viral DNA” value in series [2] was “reverse-transcribed viral DNA is absent”. Further, the “Time … to which infection is inhibited” value in series [1] is at most 10 h.

In the case of WGSNFTSTTVKA [INr-2], the “Cell death and syncytia formation with peptide and virus” value in series [3] was “increase in cell death and syncytia formation”. Also, the “Toxic effect, H9 T-cell lymphocytes” value in series [4] is given as “No toxic effect”. In addition, the “Toxic effect, HeLa TZM-bl cells” value in series [5] is given as “No toxic effect”.

Regarding `CC[C@H](C)[C@H](NC(=O)[C@H](CCCCN)NC(=O)CNC(=O)[C@H](CCC(=O)O)NC(=O)[C@H](CC(C)C)NC(=O)[C@H](Cc1c[nH]cn1)NC(=O)[C@@H](NC(=O)[C@@H](N)Cc1c[nH]c2ccccc12)[C@@H](C)O)C(=O)N[C@H](C(=O)N[C@@H](CC(C)C)C(=O)N[C@H](C(=O)N[C@@H](C)C(=O)N[C@H](C(=O)N[C@@H](Cc1c[nH]cn1)C(=O)N[C@H](C(=O)N[C@@H](C)C(=O)O)C(C)C)C(C)C)C(C)C)[C@@H](C)CC` [INr-1], in series [4], the “Toxic effect, H9 T-cell lymphocytes” value is “No toxic effect”. Besides, in series [5], the “Toxic effect, HeLa TZM-bl cells” value is listed as “No toxic effect”.

For the compound “LEDGF 402–411: LEDGF-derived peptide (aa 402–411) which has been shown to block viral IN enzymatic activity (KIRRFKVSQV; UniProt O75475 402-411, looked up, fragment)”, the “Time … to which infection is inhibited” value in series [1] is recorded as “about 18 h”. Also, the “Inhibition of IN enzymatic activity by LEDGF-derived peptides” value in series [6] is “block viral IN enzymatic activity in vitro and in vivo”.
